Results from ChEMBL document CHEMBL4507269, “Data for DCP probe BAY-386” (2021).

Key:
[1] = biological target: Myosin light chain kinase, smooth muscle (Homo sapiens) (UniProt Q15746); settings: Compound concentration 1000.0 nM
[2] = biological target: Mitogen-activated protein kinase kinase kinase 4 (Homo sapiens) (UniProt Q9Y6R4); settings: Compound concentration 1000.0 nM
[3] = biological target: Mitogen-activated protein kinase kinase kinase 20 (Homo sapiens) (UniProt Q9NYL2); settings: Compound concentration 1000.0 nM
[4] = biological target: T1, Muscarinic acetylcholine receptor M4 (Homo sapiens) (UniProt P08173); assay: M4 (h) Eurofins-Cerep Cellular and Nuclear Receptor Functional Assays; settings: Compound concentration 10.0 uM
T1 sequence (whole entry): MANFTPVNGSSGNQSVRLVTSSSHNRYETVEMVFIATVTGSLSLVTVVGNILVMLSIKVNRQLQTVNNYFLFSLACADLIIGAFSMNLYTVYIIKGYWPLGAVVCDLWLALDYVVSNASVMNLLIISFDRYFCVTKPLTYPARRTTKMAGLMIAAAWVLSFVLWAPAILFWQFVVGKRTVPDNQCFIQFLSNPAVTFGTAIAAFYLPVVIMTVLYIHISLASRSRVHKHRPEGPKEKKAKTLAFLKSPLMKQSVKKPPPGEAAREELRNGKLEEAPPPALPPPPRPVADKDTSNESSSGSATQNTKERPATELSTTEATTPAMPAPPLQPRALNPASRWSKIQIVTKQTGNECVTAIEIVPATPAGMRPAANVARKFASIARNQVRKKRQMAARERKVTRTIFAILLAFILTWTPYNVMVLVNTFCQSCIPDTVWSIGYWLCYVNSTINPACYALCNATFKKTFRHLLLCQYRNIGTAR

[5] = biological target: Mitogen-activated protein kinase 13 (Homo sapiens) (UniProt O15264); settings: Compound concentration 1000.0 nM
[6] = biological target: TGF-beta receptor type-1 (Homo sapiens) (UniProt P36897); settings: Compound concentration 1000.0 nM
[7] = biological target: Casein kinase I isoform alpha (Homo sapiens) (UniProt P48729); settings: Compound concentration 1000.0 nM
[8] = biological target: Rho-associated protein kinase 2 (Homo sapiens) (UniProt O75116); settings: Compound concentration 1000.0 nM
[9] = biological target: Ankyrin repeat and protein kinase domain-containing protein 1 (Homo sapiens) (UniProt Q8NFD2); settings: Compound concentration 1000.0 nM
[10] = biological target: Calcium/calmodulin-dependent protein kinase type IV (Homo sapiens) (UniProt Q16566); settings: Compound concentration 1000.0 nM
[11] = biological target: Serine/threonine-protein kinase VRK2 (Homo sapiens) (UniProt Q86Y07); settings: Compound concentration 1000.0 nM
[12] = biological target: BDNF/NT-3 growth factors receptor (Homo sapiens) (UniProt Q16620); settings: Compound concentration 1000.0 nM
[13] = biological target: STE20-like serine/threonine-protein kinase (Homo sapiens) (UniProt Q9H2G2); settings: Compound concentration 1000.0 nM
[14] = biological target: Cyclin-dependent kinase 18 (Homo sapiens) (UniProt Q07002); settings: Compound concentration 1000.0 nM
[15] = biological target: Mitogen-activated protein kinase kinase kinase 19 (Homo sapiens) (UniProt Q56UN5); settings: Compound concentration 1000.0 nM
[16] = biological target: Casein kinase I isoform gamma-2 (Homo sapiens) (UniProt P78368); settings: Compound concentration 1000.0 nM
[17] = biological target: Tyrosine-protein kinase Fgr (Homo sapiens) (UniProt P09769); settings: Compound concentration 1000.0 nM
[18] = biological target: Serine/threonine-protein kinase ULK3 (Homo sapiens) (UniProt Q6PHR2); settings: Compound concentration 1000.0 nM
[19] = biological target: 5-hydroxytryptamine receptor 7 (Homo sapiens) (UniProt P34969); settings: Compound concentration 10.0 uM
[20] = biological target: Macrophage-stimulating protein receptor (Homo sapiens) (UniProt Q04912); settings: Compound concentration 1000.0 nM
[21] = biological target: Activin receptor type-1B (Homo sapiens) (UniProt P36896); settings: Compound concentration 1000.0 nM
[22] = biological target: Tyrosine-protein kinase Fyn (Homo sapiens) (UniProt P06241); settings: Compound concentration 1000.0 nM
[23] = biological target: Ephrin type-A receptor 4 (Homo sapiens) (UniProt P54764); settings: Compound concentration 1000.0 nM
[24] = biological target: Ephrin type-A receptor 7 (Homo sapiens) (UniProt Q15375); settings: Compound concentration 1000.0 nM
[25] = biological target: Muscle, skeletal receptor tyrosine-protein kinase (Homo sapiens) (UniProt O15146); settings: Compound concentration 1000.0 nM
[26] = biological target: Serine/threonine-protein kinase Nek1 (Homo sapiens) (UniProt Q96PY6); settings: Compound concentration 1000.0 nM
[27] = biological target: Serine/threonine-protein kinase 24 (Homo sapiens) (UniProt Q9Y6E0); settings: Compound concentration 1000.0 nM
[28] = biological target: Serine/threonine-protein kinase Nek4 (Homo sapiens) (UniProt P51957); settings: Compound concentration 1000.0 nM
[29] = biological target: Rhodopsin kinase GRK7 (Homo sapiens) (UniProt Q8WTQ7); settings: Compound concentration 1000.0 nM
[30] = biological target: Calcium/calmodulin-dependent protein kinase type 1B (Homo sapiens) (UniProt Q6P2M8); settings: Compound concentration 1000.0 nM
[31] = biological target: Phosphatidylinositol 5-phosphate 4-kinase type-2 gamma (Homo sapiens) (UniProt Q8TBX8); settings: Compound concentration 1000.0 nM
[32] = biological target: Ribosomal protein S6 kinase alpha-5 (Homo sapiens) (UniProt O75582); settings: Compound concentration 1000.0 nM
[33] = biological target: Serine/threonine-protein kinase TNNI3K (Homo sapiens) (UniProt Q59H18); settings: Compound concentration 1000.0 nM
[34] = biological target: Epithelial discoidin domain-containing receptor 1 (Homo sapiens) (UniProt Q08345); settings: Compound concentration 1000.0 nM
[35] = biological target: 5'-AMP-activated protein kinase catalytic subunit alpha-2 (Homo sapiens) (UniProt P54646); settings: Compound concentration 1000.0 nM
[36] = biological target: Mitogen-activated protein kinase kinase kinase kinase 4 (Homo sapiens) (UniProt O95819); settings: Compound concentration 1000.0 nM
[37] = biological target: NT-3 growth factor receptor (Homo sapiens) (UniProt Q16288); settings: Compound concentration 1000.0 nM
[38] = biological target: Dual specificity mitogen-activated protein kinase kinase 3 (Homo sapiens) (UniProt P46734); settings: Compound concentration 1000.0 nM
[39] = biological target: Delta-type opioid receptor (Homo sapiens) (UniProt P41143); settings: Compound concentration 10.0 uM

Sequence of Tyrosine-protein kinase Fgr (Homo sapiens) (P09769 2-529 limits assumed): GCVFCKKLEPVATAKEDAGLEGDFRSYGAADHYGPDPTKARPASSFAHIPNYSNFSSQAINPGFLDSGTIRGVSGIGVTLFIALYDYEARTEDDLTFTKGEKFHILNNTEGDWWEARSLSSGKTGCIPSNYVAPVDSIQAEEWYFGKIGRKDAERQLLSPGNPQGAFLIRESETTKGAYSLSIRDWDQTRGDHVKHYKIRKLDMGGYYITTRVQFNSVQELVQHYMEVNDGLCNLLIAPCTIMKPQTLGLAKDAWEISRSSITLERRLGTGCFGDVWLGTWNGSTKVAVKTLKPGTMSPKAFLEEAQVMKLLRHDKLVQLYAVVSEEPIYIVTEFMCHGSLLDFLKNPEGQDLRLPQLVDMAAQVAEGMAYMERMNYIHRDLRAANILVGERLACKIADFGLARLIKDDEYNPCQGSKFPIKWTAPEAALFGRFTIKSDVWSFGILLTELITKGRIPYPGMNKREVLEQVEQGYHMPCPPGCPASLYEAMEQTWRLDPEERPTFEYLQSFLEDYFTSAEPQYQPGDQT
Sequence of Mitogen-activated protein kinase kinase kinase 20 (Homo sapiens) (Q9NYL2 2-800 limits assumed): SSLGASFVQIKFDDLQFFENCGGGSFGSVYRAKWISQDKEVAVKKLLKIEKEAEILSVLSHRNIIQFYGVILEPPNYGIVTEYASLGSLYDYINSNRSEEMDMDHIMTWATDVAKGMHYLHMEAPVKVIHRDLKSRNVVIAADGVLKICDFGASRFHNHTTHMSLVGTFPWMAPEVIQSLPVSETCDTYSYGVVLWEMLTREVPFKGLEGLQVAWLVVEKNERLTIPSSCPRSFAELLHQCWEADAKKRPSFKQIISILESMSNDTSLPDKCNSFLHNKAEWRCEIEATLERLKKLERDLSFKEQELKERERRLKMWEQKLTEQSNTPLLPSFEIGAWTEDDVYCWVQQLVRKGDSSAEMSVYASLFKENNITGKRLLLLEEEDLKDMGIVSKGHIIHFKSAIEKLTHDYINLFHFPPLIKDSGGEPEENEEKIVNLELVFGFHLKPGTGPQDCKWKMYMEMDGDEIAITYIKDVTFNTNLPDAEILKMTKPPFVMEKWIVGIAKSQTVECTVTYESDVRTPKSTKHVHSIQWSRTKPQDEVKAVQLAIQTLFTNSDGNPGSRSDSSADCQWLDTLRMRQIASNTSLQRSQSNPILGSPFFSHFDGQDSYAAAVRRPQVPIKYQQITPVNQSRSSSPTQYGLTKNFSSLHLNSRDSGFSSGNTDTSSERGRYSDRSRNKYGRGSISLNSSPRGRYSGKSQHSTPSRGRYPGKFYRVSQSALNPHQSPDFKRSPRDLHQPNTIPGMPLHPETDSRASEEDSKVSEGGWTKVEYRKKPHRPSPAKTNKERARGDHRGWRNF
Sequence of Rhodopsin kinase GRK7 (Homo sapiens) (Q8WTQ7 whole entry): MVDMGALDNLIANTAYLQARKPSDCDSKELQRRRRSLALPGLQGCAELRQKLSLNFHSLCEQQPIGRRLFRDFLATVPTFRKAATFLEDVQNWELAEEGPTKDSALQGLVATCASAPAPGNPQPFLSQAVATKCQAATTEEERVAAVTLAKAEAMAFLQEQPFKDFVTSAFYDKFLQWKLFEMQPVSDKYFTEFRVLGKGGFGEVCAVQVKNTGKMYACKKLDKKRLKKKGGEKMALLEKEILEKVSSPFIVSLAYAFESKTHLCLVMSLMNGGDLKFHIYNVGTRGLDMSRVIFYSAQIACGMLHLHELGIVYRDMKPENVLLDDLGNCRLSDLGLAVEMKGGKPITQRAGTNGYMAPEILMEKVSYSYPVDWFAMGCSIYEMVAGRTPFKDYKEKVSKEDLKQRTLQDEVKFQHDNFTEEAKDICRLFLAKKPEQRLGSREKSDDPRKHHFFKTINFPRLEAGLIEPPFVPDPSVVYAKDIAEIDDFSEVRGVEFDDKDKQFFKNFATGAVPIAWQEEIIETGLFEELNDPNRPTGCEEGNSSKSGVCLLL
Sequence of Ankyrin repeat and protein kinase domain-containing protein 1 (Homo sapiens) (Q8NFD2 whole entry, the tested form may be a part): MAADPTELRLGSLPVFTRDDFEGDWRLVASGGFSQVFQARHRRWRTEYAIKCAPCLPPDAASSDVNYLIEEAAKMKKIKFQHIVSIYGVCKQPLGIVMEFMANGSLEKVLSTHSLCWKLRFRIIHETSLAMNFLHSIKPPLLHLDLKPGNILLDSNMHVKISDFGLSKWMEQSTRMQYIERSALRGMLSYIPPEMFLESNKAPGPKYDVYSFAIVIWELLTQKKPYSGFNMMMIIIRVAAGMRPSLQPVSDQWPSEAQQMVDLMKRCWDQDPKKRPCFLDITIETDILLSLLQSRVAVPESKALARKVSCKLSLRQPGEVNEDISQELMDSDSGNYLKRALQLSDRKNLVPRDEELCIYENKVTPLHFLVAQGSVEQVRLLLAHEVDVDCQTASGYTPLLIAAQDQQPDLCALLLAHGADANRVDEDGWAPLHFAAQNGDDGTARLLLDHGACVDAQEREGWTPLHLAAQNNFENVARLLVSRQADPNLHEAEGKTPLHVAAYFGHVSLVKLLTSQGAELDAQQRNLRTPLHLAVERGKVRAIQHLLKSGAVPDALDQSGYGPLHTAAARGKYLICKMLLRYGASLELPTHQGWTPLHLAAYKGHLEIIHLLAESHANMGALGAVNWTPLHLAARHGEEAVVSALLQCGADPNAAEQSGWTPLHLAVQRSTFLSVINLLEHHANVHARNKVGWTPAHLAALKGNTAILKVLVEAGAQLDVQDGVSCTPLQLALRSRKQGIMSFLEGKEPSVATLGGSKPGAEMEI
Sequence of Ribosomal protein S6 kinase alpha-5 (Homo sapiens) (O75582 whole entry, looked up): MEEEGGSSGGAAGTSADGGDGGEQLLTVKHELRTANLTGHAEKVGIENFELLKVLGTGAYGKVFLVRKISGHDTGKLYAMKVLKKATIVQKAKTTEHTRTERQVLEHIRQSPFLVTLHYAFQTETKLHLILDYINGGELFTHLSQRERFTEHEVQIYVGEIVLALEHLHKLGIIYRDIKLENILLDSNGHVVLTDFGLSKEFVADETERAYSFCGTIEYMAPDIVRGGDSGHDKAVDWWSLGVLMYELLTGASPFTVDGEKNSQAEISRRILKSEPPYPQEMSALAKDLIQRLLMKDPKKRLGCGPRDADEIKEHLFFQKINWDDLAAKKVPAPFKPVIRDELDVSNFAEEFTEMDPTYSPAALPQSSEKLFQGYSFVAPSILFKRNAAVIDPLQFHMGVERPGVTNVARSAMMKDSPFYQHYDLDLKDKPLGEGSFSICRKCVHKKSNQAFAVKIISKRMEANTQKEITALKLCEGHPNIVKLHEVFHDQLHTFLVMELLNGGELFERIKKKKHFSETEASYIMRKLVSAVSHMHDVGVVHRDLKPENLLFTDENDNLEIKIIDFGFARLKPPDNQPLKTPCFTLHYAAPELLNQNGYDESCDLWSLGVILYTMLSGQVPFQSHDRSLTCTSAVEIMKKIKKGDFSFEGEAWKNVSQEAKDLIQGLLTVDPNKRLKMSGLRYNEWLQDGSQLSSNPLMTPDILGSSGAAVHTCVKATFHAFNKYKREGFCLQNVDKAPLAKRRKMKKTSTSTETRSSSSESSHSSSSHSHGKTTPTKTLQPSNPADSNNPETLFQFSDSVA
Sequence of Casein kinase I isoform alpha (Homo sapiens) (P48729 2-337 limits assumed): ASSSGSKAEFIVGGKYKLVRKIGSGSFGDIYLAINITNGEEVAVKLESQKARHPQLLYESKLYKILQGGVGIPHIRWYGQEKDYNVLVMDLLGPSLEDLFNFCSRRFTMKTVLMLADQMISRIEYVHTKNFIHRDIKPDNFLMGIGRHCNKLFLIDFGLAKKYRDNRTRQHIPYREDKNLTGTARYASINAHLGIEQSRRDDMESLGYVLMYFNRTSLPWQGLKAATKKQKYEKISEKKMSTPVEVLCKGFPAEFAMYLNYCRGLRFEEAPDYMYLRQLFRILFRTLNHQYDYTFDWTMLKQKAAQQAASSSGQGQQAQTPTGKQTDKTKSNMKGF
Sequence of Dual specificity mitogen-activated protein kinase kinase 3 (Homo sapiens) (P46734 whole entry): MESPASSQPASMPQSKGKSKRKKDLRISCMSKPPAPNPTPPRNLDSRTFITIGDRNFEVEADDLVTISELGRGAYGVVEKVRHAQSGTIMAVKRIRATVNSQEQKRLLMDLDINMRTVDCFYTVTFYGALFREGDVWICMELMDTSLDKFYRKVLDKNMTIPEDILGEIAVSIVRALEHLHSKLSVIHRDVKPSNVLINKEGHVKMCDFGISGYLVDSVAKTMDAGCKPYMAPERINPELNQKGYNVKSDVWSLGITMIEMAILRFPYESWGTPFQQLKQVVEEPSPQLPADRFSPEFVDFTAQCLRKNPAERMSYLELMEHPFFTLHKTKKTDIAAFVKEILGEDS
Sequence of Calcium/calmodulin-dependent protein kinase type IV (Homo sapiens) (Q16566 whole entry): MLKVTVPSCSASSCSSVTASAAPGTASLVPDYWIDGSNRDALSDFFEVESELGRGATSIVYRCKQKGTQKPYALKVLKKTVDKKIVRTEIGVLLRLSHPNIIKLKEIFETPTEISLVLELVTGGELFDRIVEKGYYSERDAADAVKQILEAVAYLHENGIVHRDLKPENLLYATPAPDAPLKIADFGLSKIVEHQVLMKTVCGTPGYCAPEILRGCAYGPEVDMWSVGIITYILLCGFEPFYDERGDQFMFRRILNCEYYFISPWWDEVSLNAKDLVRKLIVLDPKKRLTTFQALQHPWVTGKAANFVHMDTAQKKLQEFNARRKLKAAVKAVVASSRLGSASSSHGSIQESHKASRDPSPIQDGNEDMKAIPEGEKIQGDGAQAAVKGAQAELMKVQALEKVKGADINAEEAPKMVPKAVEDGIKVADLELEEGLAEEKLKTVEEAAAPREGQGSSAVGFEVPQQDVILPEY
Sequence of Phosphatidylinositol 5-phosphate 4-kinase type-2 gamma (Homo sapiens) (Q8TBX8 whole entry): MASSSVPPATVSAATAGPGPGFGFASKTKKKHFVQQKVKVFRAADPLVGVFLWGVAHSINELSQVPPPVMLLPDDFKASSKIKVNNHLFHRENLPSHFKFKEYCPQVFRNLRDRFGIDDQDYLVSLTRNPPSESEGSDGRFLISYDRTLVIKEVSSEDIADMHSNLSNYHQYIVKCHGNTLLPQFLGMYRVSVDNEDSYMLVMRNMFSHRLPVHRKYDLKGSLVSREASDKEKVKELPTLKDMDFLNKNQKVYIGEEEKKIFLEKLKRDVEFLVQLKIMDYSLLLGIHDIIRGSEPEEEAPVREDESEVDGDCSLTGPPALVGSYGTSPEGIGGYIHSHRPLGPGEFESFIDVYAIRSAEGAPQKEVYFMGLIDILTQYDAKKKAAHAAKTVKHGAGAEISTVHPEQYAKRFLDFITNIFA

SMILES | residual activity [1] | residual activity [2] | residual activity [3] | % Inhibition of Control Agonist Response (Mean n=2) [4] | % of Control Agonist Response (Mean n=2) [4] | residual activity [5] | residual activity [6] | residual activity [7] | residual activity [8] | residual activity [9] | residual activity [10] | residual activity [11] | residual activity [12] | residual activity [13] | residual activity [14] | residual activity [15] | residual activity [16] | residual activity [17] | residual activity [18] | inhibition [19] | other results
O=C(N1CCS(=O)(=O)CC1)N1C[C@H](c2ccc(OC(F)(F)F)cc2)C[C@H](c2nc(C3CC3)no2)C1 [BAY-386] | 100% | 83% | 100% | 5.8% | -15% | 100% | 100% | 100% | 98% | 100% | 91% | 90% | 94% | 100% | 0% | 58% | 89% | 100% | 93% | -0.77% | residual activity [20]: 100%; residual activity [21]: 100%; residual activity [22]: 80%; residual activity [23]: 100%; residual activity [24]: 96%; residual activity [25]: 100%; residual activity [26]: 100%; residual activity [27]: 97%; residual activity [28]: 100%; residual activity [29]: 100%; residual activity [30]: 100%; residual activity [31]: 96%; residual activity [32]: 100%; residual activity [33]: 100%; residual activity [34]: 100%; residual activity [35]: 100%; residual activity [36]: 100%; residual activity [37]: 100%; residual activity [38]: 100%; inhibition [39]: -2.63%
Cc1noc([C@H]2C[C@@H](c3ccc(C(F)(F)F)cc3)CN(C(=O)N3CCS(=O)(=O)C3)C2)n1 [BAY-448] | 87% | 72% | 87% | 1.9% | 25.1% | 100% | 100% | 70% | 100% | 100% | 95% | 91% | 83% | 98% | 97% | 77% | 100% | 100% | 77% | 21.8% | residual activity [20]: 100%; residual activity [21]: 100%; residual activity [22]: 94%; residual activity [23]: 100%; residual activity [24]: 100%; residual activity [25]: 100%; residual activity [26]: 100%; residual activity [27]: 100%; residual activity [28]: 82%; residual activity [29]: 100%; residual activity [30]: 100%; residual activity [31]: 89%; residual activity [32]: 100%; residual activity [33]: 100%; residual activity [34]: 100%; residual activity [35]: 66%; residual activity [36]: 100%; residual activity [37]: 100%; residual activity [38]: 98%; inhibition [39]: -0.62%
